Experimental data published in ChEMBL document CHEMBL1201862, “PubChem BioAssay data set” (2004).
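Assay format: 96-well plates, 48-hour exposure. At the GI50, growth is halved.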 Calls of active or inactive are those of the source. Rule as the data show it: active = GI50 up to about 1.1 µM and inactive = higher.

What was measured:
Experiment in all cases: growth of human tumour cells (NCI), 48 h
Malme-3M = tested on: Malme-3M
CAKI-1 = tested on: CAKI-1
HOP-62 = tested on: HOP-62
SF-295 = tested on: SF-295
IGROV-1 = tested on: IGROV-1
NCI/ADR-RES = tested on: NCI/ADR-RES
PC-3 = tested on: PC-3
T47D = tested on: T47D
M14 = tested on: M14
OVCAR-4 = tested on: OVCAR-4
SK-MEL-2 = tested on: SK-MEL-2
BT-549 = tested on: BT-549
K562 = tested on: K562
HOP-92 = tested on: HOP-92
DU-145 = tested on: DU-145
CCRF-CEM = tested on: CCRF-CEM
OVCAR-3 = tested on: OVCAR-3
UACC-62 = tested on: UACC-62
SNB-19 = tested on: SNB-19
NCI-H522 = tested on: NCI-H522

SMILES | GI50 (Malme-3M) | GI50 (CAKI-1) | GI50 (HOP-62) | GI50 (SF-295) | GI50 (IGROV-1) | GI50 (NCI/ADR-RES) | GI50 (PC-3) | GI50 (T47D) | GI50 (M14) | GI50 (OVCAR-4) | GI50 (SK-MEL-2) | GI50 (BT-549) | GI50 (K562) | GI50 (HOP-92) | GI50 (DU-145) | GI50 (CCRF-CEM) | GI50 (OVCAR-3) | GI50 (UACC-62) | GI50 (SNB-19) | GI50 (NCI-H522)
N#Cc1c(Cl)cc(C#N)n2c1nc1ccccc12 | 5.35 µM (inactive) | 5.64 µM (inactive) | 21.6 µM (inactive) | 15.3 µM (inactive) | 14.6 µM (inactive) | 15.1 µM (inactive) | 18.2 µM (inactive) | 3.12 µM (inactive) | 9.71 µM (inactive) | 13.8 µM (inactive) | 17 µM (inactive) | 6.12 µM (inactive) | 3.03 µM (inactive) | 8.04 µM (inactive) | 20.8 µM (inactive) | 1.3 µM (inactive) | 5.28 µM (inactive) | 18.3 µM (inactive) | > 53.1 µM (inactive) | 2.42 µM (inactive)
C=C1C(=O)C=C2C=C3C(=O)C(C)(C)C[C@]3(O)C12C (stereo not given in full) | 1.83 µM (inactive) | 1.82 µM (inactive) | 22.5 µM (inactive) | 19 µM (inactive) | 18 µM (inactive) | 28.8 µM (inactive) | 3.14 µM (inactive) | 2.15 µM (inactive) | 1.73 µM (inactive) | 3.43 µM (inactive) | 17.8 µM (inactive) | 1.54 µM (inactive) | 0.684 µM (active) | 1.59 µM (inactive) | 18.8 µM (inactive) | 0.131 µM (active) | 1.8 µM (inactive) | 8.39 µM (inactive) | 29.5 µM (inactive) | 1.61 µM (inactive)
COc1ccc(C(=O)c2sc(Nc3ccc(Cl)cc3)nc2N)cc1 | 12.3 µM (inactive) | 16.4 µM (inactive) | 7.91 µM (inactive) | 11.1 µM (inactive) | 5.93 µM (inactive) | 5.37 µM (inactive) | 12.1 µM (inactive) | 37.6 µM (inactive) | > 63.8 µM (inactive) | 12.6 µM (inactive) | 17 µM (inactive) | > 38.5 µM (inactive) | 3.82 µM (inactive) | 35.3 µM (inactive) | 25 µM (inactive) | 2.52 µM (inactive) | 8.85 µM (inactive) | 19.3 µM (inactive) | 17.2 µM (inactive) | 3.89 µM (inactive)
